Changes are numbered by the printed parent chain.
Experiments:
M4 mAChR WT = target: T1, M4 mAChR WT (Homo sapiens, UniProt P08173); assay: [3H]-NMS radioligand dissociation binding, M4 mAChR WT; conditions: for [3H]-NMS binding remaining (0 min = 100), MEAN: M4 mAChR
T1 construct: expressed in transfected cells
T1 sequence (P08173 1-479): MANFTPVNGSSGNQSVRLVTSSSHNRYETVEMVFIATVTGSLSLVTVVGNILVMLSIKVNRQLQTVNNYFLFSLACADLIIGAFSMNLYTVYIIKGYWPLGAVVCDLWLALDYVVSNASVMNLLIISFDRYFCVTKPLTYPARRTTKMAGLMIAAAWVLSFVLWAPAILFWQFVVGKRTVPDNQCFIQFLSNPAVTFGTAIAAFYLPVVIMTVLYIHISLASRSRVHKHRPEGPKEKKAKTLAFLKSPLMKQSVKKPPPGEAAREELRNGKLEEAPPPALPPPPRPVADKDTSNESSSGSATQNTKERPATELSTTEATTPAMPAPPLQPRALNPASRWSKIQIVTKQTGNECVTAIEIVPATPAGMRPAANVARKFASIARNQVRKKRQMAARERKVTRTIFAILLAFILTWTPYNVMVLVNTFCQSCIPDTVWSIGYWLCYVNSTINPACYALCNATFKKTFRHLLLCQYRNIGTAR
Experimental: (§1) Flp-In Chinese hamster ovary (CHO) (Thermo Fisher Scientific) cells stably expressing mAChR WTs or mutant constructs were cultured in Dulbecco’s modified Eagle’s medium (DMEM, Invitrogen) containing 5% foetal bovine serum (FBS; ThermoTrace) and […] of hygromycin (Roche) in a humidified incubator (37 °C, 5% CO2). Upon reaching confluence, media was removed, cells were washed with phosphate buffered saline (PBS) and harvested from tissue culture flasks using versene (PBS with 0.2 g EDTA). Cells were then pelleted through centrifugation at 350 × g for three minutes followed by resuspension in DMEM + 5% FBS. Cells were then either plated for an assay or reseeded into a tissue culture flask.

M4 mAChR F186A = target: T2, M4 mAChR F186A (Homo sapiens, UniProt P08173, F186A); assay: [3H]-NMS radioligand dissociation binding, M4 mAChR F186A; conditions: for [3H]-NMS binding remaining (0 min = 100), MEAN: M4 F186A mAChR
T2 construct: expressed in transfected cells
T2 sequence (P08173 1-479 F186A): T1 sequence (P08173 1-479) with F186A
Experimental: as §1

M3 mAChR WT = target: T3, M3 mAChR WT (Homo sapiens, UniProt P20309); assay: [3H]-NMS radioligand dissociation binding, M3 mAChR WT; conditions: M3 mAChR
T3 construct: expressed in transfected cells
Experimental: as §1

M5 mAChR WT = target: T4, M5 mAChR WT (Homo sapiens, UniProt P08912); assay: [3H]-NMS radioligand dissociation binding, M5 mAChR WT
T4 construct: expressed in transfected cells
T4 sequence (P08912 1-532): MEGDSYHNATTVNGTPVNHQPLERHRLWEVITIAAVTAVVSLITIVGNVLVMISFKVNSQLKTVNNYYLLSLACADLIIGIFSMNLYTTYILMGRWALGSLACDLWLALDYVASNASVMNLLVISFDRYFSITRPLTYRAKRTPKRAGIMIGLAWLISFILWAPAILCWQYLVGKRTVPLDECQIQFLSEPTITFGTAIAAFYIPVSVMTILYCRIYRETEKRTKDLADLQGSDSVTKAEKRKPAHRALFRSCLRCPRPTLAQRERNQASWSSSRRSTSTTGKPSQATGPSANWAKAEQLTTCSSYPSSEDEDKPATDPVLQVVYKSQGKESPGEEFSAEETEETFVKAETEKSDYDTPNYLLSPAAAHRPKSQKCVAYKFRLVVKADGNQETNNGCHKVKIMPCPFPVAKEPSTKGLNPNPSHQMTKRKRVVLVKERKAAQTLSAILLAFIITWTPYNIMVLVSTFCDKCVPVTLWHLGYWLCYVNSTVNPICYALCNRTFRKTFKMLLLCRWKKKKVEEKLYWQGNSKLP
Experimental: as §1

[1] = 10uM Atr + 30uM LY2033, 180 min
[2] = 10uM Atr + 30uM LY2033, 300 min
[3] = 10uM Atr + 30uM LY2033, 120 min
[4] = 10uM Atr + 30uM LY2033, 210 min
[5] = 10uM Atr + 10 μM Iperoxo, 30 min
[6] = 10uM Atr + 10 μM Iperoxo, 90 min
[7] = 10uM Atr + 10 μM Iperoxo, 180 min
[8] = 10uM Atr + 10 μM Iperoxo, 300 min
[9] = 10uM Atr + 10 μM Iperoxo, 10 min
[10] = 10uM Atr + 10 μM Iperoxo, 15 min
[11] = 10uM Atr + 10 μM Iperoxo, 120 min
[12] = 10uM Atr + 10 μM Iperoxo, 210 min

T3 sequence (P20309 whole entry): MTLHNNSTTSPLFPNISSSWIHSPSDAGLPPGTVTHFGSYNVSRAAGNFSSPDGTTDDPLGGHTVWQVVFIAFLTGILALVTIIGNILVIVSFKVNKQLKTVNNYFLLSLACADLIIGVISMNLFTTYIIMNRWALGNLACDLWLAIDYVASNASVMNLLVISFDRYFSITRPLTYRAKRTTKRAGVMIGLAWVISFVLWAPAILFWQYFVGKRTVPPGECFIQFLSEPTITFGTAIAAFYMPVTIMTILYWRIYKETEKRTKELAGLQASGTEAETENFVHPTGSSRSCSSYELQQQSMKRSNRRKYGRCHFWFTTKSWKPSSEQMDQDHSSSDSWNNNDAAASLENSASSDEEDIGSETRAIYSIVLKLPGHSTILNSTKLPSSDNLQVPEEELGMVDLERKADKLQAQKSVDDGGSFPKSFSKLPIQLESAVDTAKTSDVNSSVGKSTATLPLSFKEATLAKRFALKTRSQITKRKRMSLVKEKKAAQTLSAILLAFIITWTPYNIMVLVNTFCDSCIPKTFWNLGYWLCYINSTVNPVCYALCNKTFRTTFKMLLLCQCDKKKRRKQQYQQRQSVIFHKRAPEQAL

Compound: COc1nc2sc(C(=O)NC3CC3)c(N)c2c(C)c1Cl [LY2033298]
- [3H]-NMS binding remaining (0 min = 100), MEAN (M4 mAChR WT; 10uM Atr + 10uM LY2033, 30 min): 112.685
- [3H]-NMS binding remaining (0 min = 100), MEAN (M4 mAChR WT; 10uM Atr + 10uM LY2033, 60 min): 100.725
- [3H]-NMS binding remaining (0 min = 100), MEAN (M4 mAChR WT; 10uM Atr + 10uM LY2033, 90 min): 100.81
- [3H]-NMS binding remaining (0 min = 100), MEAN (M4 mAChR WT; 10uM Atr + 10uM LY2033, 180 min): 78.3598
- [3H]-NMS binding remaining (0 min = 100), MEAN (M4 mAChR WT; 10uM Atr + 10uM LY2033, 300 min): 57.1596
- [3H]-NMS binding remaining (0 min = 100), MEAN (M4 mAChR WT; 10uM Atr + 30uM LY2033, 30 min): 97.9955
- [3H]-NMS binding remaining (0 min = 100), MEAN (M4 mAChR WT; 10uM Atr + 30uM LY2033, 90 min): 92.0634
- [3H]-NMS binding remaining (0 min = 100), MEAN (M4 mAChR WT; [1]): 80.808
- [3H]-NMS binding remaining (0 min = 100), MEAN (M4 mAChR WT; [2]): 69.858
- [3H]-NMS binding remaining (0 min = 100), MEAN (M4 mAChR F186A; 10uM Atr + 30uM LY2033, 30 min): 80.3007
- [3H]-NMS binding remaining (0 min = 100), MEAN (M4 mAChR F186A; 10uM Atr + 30uM LY2033, 90 min): 48.89
- [3H]-NMS binding remaining (0 min = 100), MEAN (M4 mAChR F186A; [1]): 55.5733
- [3H]-NMS binding remaining (0 min = 100), MEAN (M4 mAChR F186A; [2]): 28.0247
- effect on [3H]-NMS dissociation (in words) (M4 mAChR F186A; M4 mAChR F186A mutant): a similar effect was observed
- [3H]-NMS binding remaining (0 min = 100), MEAN (M3 mAChR WT; 10uM Atr + 30uM LY2033, 10 min): 96.1336
- [3H]-NMS binding remaining (0 min = 100), MEAN (M3 mAChR WT; 10uM Atr + 30uM LY2033, 15 min): 101.345
- [3H]-NMS binding remaining (0 min = 100), MEAN (M3 mAChR WT; 10uM Atr + 30uM LY2033, 30 min): 103.79
- [3H]-NMS binding remaining (0 min = 100), MEAN (M3 mAChR WT; 10uM Atr + 30uM LY2033, 90 min): 88.3999
- [3H]-NMS binding remaining (0 min = 100), MEAN (M3 mAChR WT; [3]): 77.6461
- [3H]-NMS binding remaining (0 min = 100), MEAN (M3 mAChR WT; [4]): 65.167
- [3H]-NMS binding remaining (0 min = 100), MEAN (M5 mAChR WT; 10uM Atr + 30uM LY2033, 10 min): 102.761
- [3H]-NMS binding remaining (0 min = 100), MEAN (M5 mAChR WT; 10uM Atr + 30uM LY2033, 15 min): 100.045
- [3H]-NMS binding remaining (0 min = 100), MEAN (M5 mAChR WT; 10uM Atr + 30uM LY2033, 30 min): 98.0655
- [3H]-NMS binding remaining (0 min = 100), MEAN (M5 mAChR WT; 10uM Atr + 30uM LY2033, 90 min): 75.4577
- [3H]-NMS binding remaining (0 min = 100), MEAN (M5 mAChR WT; [3]): 66.5441
- [3H]-NMS binding remaining (0 min = 100), MEAN (M5 mAChR WT; [4]): 53.7527

Compound: C[N+](C)(C)CC#CCOC1=NOCC1 [iperoxo]
- [3H]-NMS binding remaining (0 min = 100), MEAN (M4 mAChR WT; [5]): 88.7252
- [3H]-NMS binding remaining (0 min = 100), MEAN (M4 mAChR WT; [6]): 52.6732
- [3H]-NMS binding remaining (0 min = 100), MEAN (M4 mAChR WT; [7]): 31.8571
- [3H]-NMS binding remaining (0 min = 100), MEAN (M4 mAChR WT; [8]): 17.3639
- effect on [3H]-NMS dissociation (in words) (M4 mAChR WT; wild-type M4 mAChR, increasing concentrations of xanomeline, saturating concentration of iperoxo): had no effect
- [3H]-NMS binding remaining (0 min = 100), MEAN (M4 mAChR F186A; [5]): 78.4972
- [3H]-NMS binding remaining (0 min = 100), MEAN (M4 mAChR F186A; [6]): 56.5181
- [3H]-NMS binding remaining (0 min = 100), MEAN (M4 mAChR F186A; [7]): 43.1916
- [3H]-NMS binding remaining (0 min = 100), MEAN (M4 mAChR F186A; [8]): 30.9448
- [3H]-NMS binding remaining (0 min = 100), MEAN (M3 mAChR WT; [9]): 100.4
- [3H]-NMS binding remaining (0 min = 100), MEAN (M3 mAChR WT; [10]): 96.8554
- [3H]-NMS binding remaining (0 min = 100), MEAN (M3 mAChR WT; [5]): 79.7803
- [3H]-NMS binding remaining (0 min = 100), MEAN (M3 mAChR WT; [6]): 45.8424
- [3H]-NMS binding remaining (0 min = 100), MEAN (M3 mAChR WT; [11]): 38.0708
- [3H]-NMS binding remaining (0 min = 100), MEAN (M3 mAChR WT; [12]): 19.3493
- [3H]-NMS binding remaining (0 min = 100), MEAN (M5 mAChR WT; [9]): 98.7473
- [3H]-NMS binding remaining (0 min = 100), MEAN (M5 mAChR WT; [10]): 104.707
- [3H]-NMS binding remaining (0 min = 100), MEAN (M5 mAChR WT; [5]): 92.7543
- [3H]-NMS binding remaining (0 min = 100), MEAN (M5 mAChR WT; [6]): 56.424
- [3H]-NMS binding remaining (0 min = 100), MEAN (M5 mAChR WT; [11]): 46.6348
- [3H]-NMS binding remaining (0 min = 100), MEAN (M5 mAChR WT; [12]): 27.5139

Source: publication PMC10482975 (Nature Communications, 2023)
